According to ChEMBL document CHEMBL4706501, “Drug repurposing: Discovery of troxipide analogs as potent antitumor agents” (Eur J Med Chem, 2020):

Assays:
Format in all cases: functional, cell-based
[1] = test system: PC-3; assay: Antiproliferative activity against human PC3 cells assessed as reduction in cell viability after 24 to 72 hrs by MTT assay
[2] = test system: PC-9; assay: Antiproliferative activity against human PC9 cells assessed as reduction in cell viability after 24 to 72 hrs by MTT assay
[3] = test system: MGC-803; assay: Antiproliferative activity against human MGC-803 cells assessed as reduction in cell viability after 24 to 72 hrs by MTT assay
[4] = test system: MCF7; assay: Antiproliferative activity against human MCF7 cells assessed as reduction in cell viability after 24 to 72 hrs by MTT assay

SMILES	IC50 [1]	IC50 [2]	IC50 [3]	IC50 [4]
O=c1[nH]cc(F)c(=O)[nH]1 [FLUOROURACIL]	5.32 µM	4.12 µM		
COc1cc(C(=O)NC2CCCNC2)cc(OC)c1OC (stereo unspecified) [TROXIPIDE]	> 100 µM	> 100 µM	> 100 µM	> 100 µM
